A short description of series [1]: Phase 1 study, interim cohort pharmacokinetics. As to conditions: for dose proportionality of PK: Cycle 2 Day 1 (C2D1); for exposure with increase in dose: interim cohort PK. Format: in vivo, human. Here is the method: Serial blood samples are obtained to characterize the plasma PK of Compound A and its major active metabolites. The initial sampling strategy is based on the predicted human PK of this compound. If in the course of evaluating the PK, it is determined that an alternative sampling scheme would be more informative, then that alternative sampling scheme can be implemented if the total amount of blood and blood draws obtained for PK is not increased. Moreover, the total number of samples can be decreased at any time if the initial sampling scheme is considered unnecessarily intensive.

The conditions of series [2]: cited from earlier work.
Another series has as its system advanced NSCLC. The conditions noted are these: cited from earlier work.
The test system of series [3] is NSCLC. The conditions noted are these: cited from earlier work.
The next series relates to PD-1 pathway. As to conditions: cited from earlier work.
Series [4] deals with NSCLC. The conditions noted are these: cited from earlier work. The source holds these as a separate data set.
Series [5] deals with CMV specific memory T cells. As to conditions: versus isotype-matched control, dose-dependent; cited from earlier work.
Series [6] has as its system PD-L1-positive, advanced NSCLC. The conditions noted are these: cited from earlier work.
The subject of another series is advanced melanoma. The conditions noted are these: median follow-up 9 months after completion of 2 years of pembrolizumab; cited from earlier work.

Results on five molecules are retold here after patent US20240148740A1, “COMBINATION OF AN AHR INHIBITOR WITH A PDX INHIBITOR OR DOXORUBICINE” (Ikena Oncology, Inc., priority 2020, published 2024).

Read-outs that look alike come from different tables or passages of the source.

As to `C=C(C)c1cnn2c(N[C@@H]3CCc4[nH]c5ccccc5c4C3)nc(-c3cncc(F)c3)nc12` [Compound C], in [1] (400 mg and 800 mg dose), the “ratio of Compound C to Compound A (AUC)” value is given as 15-20 % of parent. In series [1], the “dose proportionality of PK” value is reported as “greater than dose proportional” and the “exposure with increase in dose” value was “Increased exposure with increase in dose”.

For “ipilimumab: drug combined with nivolumab; comparator in Keynote-006”, the “effect on the clearance of ipilimumab” value in [2] (nivolumab in combination with ipilimumab) is recorded as “no effect”.

Take “nivolumab: human monoclonal antibody (IgG4 kappa immunoglobulin) that blocks the interaction between PD-1 and its ligands”: in the series with advanced NSCLC (median follow-up 14.9 months post-randomization), the “OS HR, continued treatment” value is on record as 0.63. In addition, the “PFS HR, continue versus stop treatment” value in the series with advanced NSCLC (post-randomization after 1 year of nivolumab) is recorded as 0.42. The results for the “median PFS (post-randomization)” value in the series on advanced NSCLC (randomized to continue nivolumab) and with advanced NSCLC (randomized to stop treatment) were “not reached” and 10.3 months, respectively. Further, the entries for the “2 year OS rate” value in the series with NSCLC [3] (non-squamous NSCLC) and in the series on NSCLC [3] (squamous NSCLC) were 29% and 23%, respectively. Further, the “3 year OS rates” value with NSCLC [3] (squamous and non-squamous NSCLC) is reported as 16%-18%. Besides, the systemic accumulation result in series [2] (3 mg/kg Q2W) was “approximately 3 fold”. For the same molecule, the “time to steady-state concentrations” value in series [2] (3 mg/kg Q2W) was at most 12 weeks. Also, in series [2] (0.1 to 10 mg/kg every 2 weeks), the exposure versus dose entry is given as “increased dose proportionally”. In addition, the “geometric mean clearance (CL)” value in [2] (0.1 to 10 mg/kg, single or multiple doses) is recorded as 9.5 mL/h. Also, in [2] (0.1 to 10 mg/kg), the “geometric mean elimination half-life (t½)” value is given as 26.7 days. The “geometric mean volume of distribution at steady state (Vss)” value in [2] (0.1 to 10 mg/kg) is 8.0 L. For the same molecule, in series [2] (in combination with ipilimumab), the “increase of CL of nivolumab” value was 24%. Moreover, the “proliferation and IFN-γ release in the MLR” value in the series with PD-1 pathway is “reproducible enhancement”. Further, the “subjects alive >5 years and progression-free without subsequent therapy” value with NSCLC [4] (among 16 NSCLC subjects who discontinued after 2 years of treatment) is listed as 12 subjects. Also, the values for the OS rate in the series on NSCLC [4] (at 2 years) and in the series with NSCLC [4] (at 3 years) were 25% and 18%, respectively. The “IFN-γ secretion from CMV specific memory T cells” value in [5] was “augmented IFN-γ secretion”.

Consider `CC(C)(O)c1cnn2c(N[C@@H]3CCc4[nH]c5ccccc5c4C3)nc(-c3cncc(F)c3)nc12` [Compound B], for which the “ratio of Compound B to Compound A” value in series [1] (C2D1, 400 mg and 800 mg dose) is 1.3-1.4 x parent. Also, in [1] (C2D1, cohorts above 200 mg), the “Compound B metabolite ratio” value was “increased”. Further, in series [1], the “dose proportionality of PK” value is given as “greater than dose proportional” and the “exposure with increase in dose” value is reported as “Increased exposure with increase in dose”. Besides, the “accumulation with repeat dosing” value in series [1] (above 200 mg) was “Accumulation”. Besides, the “AUC relative to Compound A” value in series [1] (repeated dosing, 2/3 subjects at 400 and 800 mg) is reported as “greater than Compound A”.

With pembrolizumab, in series [6] (47 patients who completed 2 years), the “patients with confirmed progression after stopping at 2 years” value is listed as 4%. The “OS hazard ratio (HR) compared to docetaxel” value is recorded as 0.72 in [6] (pembrolizumab 2 mg/kg every 3 weeks) and 0.60 in series [6] (pembrolizumab 10 mg/kg every 3 weeks). The “estimated risk of progression or death” value in the series with advanced melanoma was 9%.
